From article PMC11417994, “Cyclohexanediamine Triazole (CHDT) Functionalization Enables Labeling of Target Molecules with Al^18F/^68Ga/^111In” (Bioconjugate Chemistry, 2024) come the findings set out here.

Values joined by “and” are separate entries in the source; they are usually repeats but may differ in a detail not shown here. Equal values may be shown once.

In data set [1] the target is T1, PSMA (Homo sapiens, UniProt Q04609).
T1 construct: Detection of endogenous PSMA expression in LNCaP and PC3 cells relative to β-actin expression by Western; host or cells: LNCaP human prostate carcinoma cells (monolayer, spheroids or Potter-Elvehjem homogenates)
As to the kind of experiment: Saturation binding (surface-bound and internalized), intact LNCaP cells as monolayer. An excerpt:
(§1) In addition to assessing the binding affinities for nonlabeled CHDT-PSMA-1/2/3, we sought to characterize the saturation binding of the Al^18F-, ^68Ga-, and ^111In-labeled compounds using LNCaP cells cultured in monolayers and as spheroids. The saturation binding curves for Al[^18F]F-CHDT-PSMA-1/2/3 are depicted in Figure 3, while the graphs for [^18F]PSMA-1007 and ^68Ga- and ^111In-labeled CHDT-PSMA-1/2/3 can be found in Figures S7–S9 in the Supporting Information. The binding parameters (Kd and Bmax) for Al[^18F]F-CHDT-PSMA-1/2/3 and [^18F]PSMA-1007 are summarized in Table 3 (for the ^68Ga- and ^111In-labeled compounds see Tables S4 and S5 in the Supporting Information). For the saturation binding assays, we recorded surface-bound radioligand (named “binding”), which refers to bound radioligand that can be removed by acid wash, and internalized or acid-resistant radioligand (named “internalization”), which refers to radioligand that remains cell-bound after acid wash. Consequently, two saturation binding plots were obtained and two sets of binding parameters (Kd/Bmax and Kd,int/Bmax,int) were derived.
(§2) For saturation assays in well plates, monolayers of LNCaP (sowing 5 × 10^4 cells/well in 48-well plates 2 days before the assay), as well as LNCaP spheroids were incubated with radiolabeled CHDT-PSMA-1/2/3 and PSMA-1007 (0.2 nM to 100 nM) with adjacent samples receiving KuE (0.8 mM) at 37 °C for 2 h. The number of experiments can be derived from the data in the Tables S4, S5, and S7 in the Supporting Information. After removing the incubation medium and washing of cells with ice-cold PBS (containing Mg^2+ and Ca^2+) the surface-bound activity was stripped with 4 °C cold acid-wash buffer (0.2 M glycine, 0.15 M NaCl, pH 3.0) for 10 min. The acid wash buffer was transferred from the wells to measuring tubes, as was the PBS buffer after washing once. Cytosolic activity (internalized radioligand) was determined after treatment with cell lysis buffer (1% SDS in 0.1 M NaOH) at 37 °C for 30 min. Cell surface and cytosolic activity were measured separately in a gamma counter. Time-depending internalization assays were performed only with cells in monolayer. The incubation (radioligand concentration 13 nM) for these assays was terminated after 10 min, 1 and 3 h, with ^111In and ^177Lu additionally after 24 and 48 h at 37 °C, respectively. During the internalization assays adjacent samples received KuE (0.8 mM) for PSMA blocking, methyl-β-cyclodextrin (MβCD; 3 mM) or KuE together with MβCD, 1 h before radioligand application. The number of experiments can be derived from the data of Figure S11 and associated table and from Table S8 in the Supporting Information.
(§3) Dissociations constants (Kd and Kd,int), as well as maximal binding capacities (Bmax and Bmax,int), were derived from specific binding data by nonlinear regression according to the model of “One site-specific binding” as implemented in GraphPad Prism 10. Protein content was determined using the bicinchoninic acid protein assay kit (Pierce, Thermo Scientific) to calculate the binding capacities in pmol/mg and for the time-depending internalization the internalized percent of administrated dose per μg protein (% AD/μg protein).

The target of data set [2] is T1, PSMA. As to the kind of experiment: Time-depending internalization assay, LNCaP cells as monolayer. It is filed as cell-based. The conditions noted are these: individual experiments; for specific internalization in the presence of MβCD: MβCD 3 mM; for specific internalization: radioligand 13 nM. The procedure:
as §2, §3

For the next data set, the system named is LNCaP tumor xenograft. As to the kind of experiment: Small animal PET imaging, LNCaP tumor xenograft mouse model. The class given is in vivo, mice. As to the method: All animal experiments were performed in accordance with the German Animal Welfare regulations and were approved by the local ethics committee for animal experiments (DD24.1-51-31/449/49, Oct 26, 2018). A PSMA-positive prostate cancer xenograft model was generated by subcutaneous injection of human LNCaP cells into the right shoulder of 8–12 week-old male nude mice (Rj:NMRI-Foxn1^nu/nu, Janvier Laboratories, Le Genest-Saint-Isle, France). Imaging studies were performed when subcutaneous tumors reached a diameter of at least 6 mm. General anesthesia of the animals was induced and maintained by inhalation of 10% (v/v) desflurane in 30/70% (v/v) oxygen/air. Animals were continuously warmed at 37 °C during anesthesia.
Positron emission tomography (PET) was performed in vivo using the nanoScan PET/CT scanner (Mediso Medical Imaging Systems, Budapest, Hungary), especially suited for small animals. Each animal received 8–12 MBq of the reference compound [^18F]PSMA-1007 or the radioligands Al[^18F]F-CHDT-PSMA-1/2/3 in phosphate-buffered saline by intravenous injection via a tail vein catheter. At the time of injection, molar activities and radiochemical purities of the compounds were as follows: [^18F]PSMA-1007 (15 MBq/nmol, >99%); Al[^18F]F-CHDT-PSMA-1 (10 MBq/nmol, 99%); Al[^18F]F-CHDT-PSMA-2 (6.3 MBq/nmol, 98%); Al[^18F]F-CHDT-PSMA-3 (4.5 MBq/nmol, >99%). Specificity of target binding was assessed by blocking PSMA binding sites with 2-phosphonomethyl pentanedioic acid (2-PMPA), administered simultaneously with the radioligand at a dose of 50 mg/kg. With injection of the radioligand, emission of the annihilation photons was recorded continuously in coincidence mode of 1:5 for 120 min. A corresponding CT image was acquired with each PET scan and used for attenuation correction and anatomical referencing. From three-dimensional list mode data, events within the energy window of 400–600 keV were extracted and sorted into 36 time frames (f1–f36) with a sequence of 15 × 10 s, 5 × 30 s, 5 × 60 s, 4 × 300 s, 3 × 600 s, and 4 × 900 s. For each time frame, a PET image was reconstructed with the three-dimensional (3D) Tera-Tomo algorithm, with a voxel size of 0.4 mm, applying corrections for random events, scattering, attenuation, and decay.
Three-dimensional regions of interest (ROIs) were defined within an image series of selected time frames using fixed intensity thresholds for delineation of organs: bones at knee joint position (0–120 min, 55%), cardiac blood volume (0–1.7 min, 70%), gall bladder (0–120 min, 39%), intestine (0–120 min, 5%), kidneys (0–2.5 min, 15%), liver (0–2.5 min, 55%), muscle (0–120 min, 0%), parotid glands (0–120 min, 39%), tumor (0–120 min, 39%), and urinary bladder (0–120 min, 5%). Activity concentrations in tissue were determined as standardized uptake value (SUV = [MBq detected activity/mL tissue]/[MBq injected activity/g body weight]) and expressed as SUVmean (ROI-averaged). Time-activity curves were generated and analyzed using Prism (GraphPad Software, San Diego CA, USA). […] Areas under curves (AUC) were calculated using the trapezoid rule. Statistical significance of mean differences was tested by analysis of variance (ANOVA) using the Šidák test.

The target in data set [3] is T1, PSMA. As to the kind of experiment: Competition binding assay, LNCaP cell homogenates, radioligand [177Lu]Lu-PSMA-617. The conditions noted are these: nonlabeled compounds; [177Lu]Lu-PSMA-617 12 nM; 37 °C, 60 min; Table 2 mean (SEM), Table S3 individual experiments and mean. As to the method: The binding affinity of the nonlabeled CHDT-PSMA-1/2/3, PSMA-1007, PSMA-617, and KuE was assessed in competition binding assays using LNCaP cell homogenates (∼1 × 10^6 cells/mL using Potter-Elvehjem) and the radioligand [^177Lu]Lu-PSMA-617 (n = 5 for CHDT-PSMA-1; n = 4 for CHDT-PSMA-2/3; n = 2 for PSMA-1007; n = 8 for PSMA-617; n = 6 for KuE). […] The assays were performed in a final volume of 200 μL. The incubation was stopped by washing the homogenate with cold PBS four times using a filter (Whatman GF/C, 90 min presoaked in 0.3% polyethylenimine) in a cell harvester (Brandel, USA). The radioactivity bound to the filter was measured in a gamma counter. Filter binding was determined for adjacent samples without cell homogenate. The experiments were performed two to four times in triplicates or quadruplicates. Inhibitory constants (Ki) were derived from nonlinear regression according to the model of “One site – Fit Ki” as implemented in GraphPad Prism 10. The Kd value of [^177Lu]Lu-PSMA-617 was determined in saturation binding assays using LNCaP cell homogenates to be 15.2 (±2.1) nM.

For data set [4], the target named is T1, PSMA. As to the kind of experiment: Saturation binding (surface-bound and internalized), LNCaP spheroids.
From the text: as §1
For the formation of spheroids, the LNCaP cells were incubated overnight in a normal culture bottle with biocompatible nanoparticles ([…] with 80 μL of a suspension consisting of Au, Fe2O3 and poly-L-lysine called Nanoshuttle, Greiner Bio-One GmbH, Germany). After harvesting and cell counting, 10,000 cells/well of a 24-well plate or 7,000 cells/well of a 96-well plate (cell-repellent plates) were sown. The well plates were placed on matching plates with button magnets (Greiner Bio-One GmbH, Germany). The magnetized LNCaP cells formed suitable spheroids that were used after 5 d.
as §2, §3

[5] abbreviates: Al^18F-labeled conjugate or [18F]PSMA-1007, surface-bound.
Where [6] appears, read: SUVmean ratio 105–120 min after injection, mean ± SD.
The mark [7] stands for this setting: Al^18F-labeled conjugate or [18F]PSMA-1007, acid-resistant fraction, read-out: Kd,int (internalization).

One may read the Ki as a dissociation constant, usually derived from enzyme kinetics or from competition with a known ligand. Broadly, the Kd is the constant that tells how readily two partners part at equilibrium.

T1 sequence (Q04609 whole entry): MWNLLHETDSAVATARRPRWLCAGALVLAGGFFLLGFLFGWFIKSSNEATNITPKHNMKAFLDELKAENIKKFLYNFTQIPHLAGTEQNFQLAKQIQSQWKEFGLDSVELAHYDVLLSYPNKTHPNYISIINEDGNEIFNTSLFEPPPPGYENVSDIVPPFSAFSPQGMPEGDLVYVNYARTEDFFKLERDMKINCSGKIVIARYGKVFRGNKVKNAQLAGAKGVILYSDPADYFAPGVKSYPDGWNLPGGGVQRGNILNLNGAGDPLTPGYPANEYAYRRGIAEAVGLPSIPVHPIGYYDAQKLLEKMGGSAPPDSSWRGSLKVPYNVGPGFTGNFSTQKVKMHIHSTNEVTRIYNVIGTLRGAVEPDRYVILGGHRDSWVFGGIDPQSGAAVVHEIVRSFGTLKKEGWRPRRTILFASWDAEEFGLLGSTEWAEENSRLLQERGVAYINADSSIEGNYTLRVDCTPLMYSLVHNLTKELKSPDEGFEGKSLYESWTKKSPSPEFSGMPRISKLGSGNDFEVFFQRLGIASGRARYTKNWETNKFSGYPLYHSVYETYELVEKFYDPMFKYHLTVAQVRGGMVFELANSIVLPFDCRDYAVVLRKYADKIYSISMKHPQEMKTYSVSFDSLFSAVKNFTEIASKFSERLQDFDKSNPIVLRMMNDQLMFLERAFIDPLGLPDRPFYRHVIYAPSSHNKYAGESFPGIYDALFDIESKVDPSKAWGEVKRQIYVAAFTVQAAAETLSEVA

`O=C(O)CC[C@H](NC(=O)N[C@@H](CCCCNC(=O)[C@H](Cc1ccc2ccccc2c1)NC(=O)c1ccc(CNC(=O)[C@H](CCC(=O)O)NC(=O)[C@H](CCC(=O)O)NC(=O)c2ccc([18F])nc2)cc1)C(=O)O)C(=O)O` [[^18F]PSMA-1007]: the “Bmax (binding)” value on PSMA [1] (setting [5]) turned out to be 1.11 pmol/mg. At PSMA [2] (10 min), the “specific internalization in the presence of MβCD” value is 0.02232 % AD/µg protein and 0.008008 % AD/µg protein; the specific internalization is 0.03696 % AD/µg protein and 0.02616 % AD/µg protein. Also, on PSMA [2] (1 h), the “specific internalization in the presence of MβCD” value is 0.1091 % AD/µg protein and 0.02833 % AD/µg protein and 0.1038 % AD/µg protein; the specific internalization was 0.07765 % AD/µg protein and 0.1071 % AD/µg protein and 0.1171 % AD/µg protein. On PSMA [2] (3 h), the “specific internalization in the presence of MβCD” value is 0.04566 % AD/µg protein and 0.1478 % AD/µg protein and 0.1495 % AD/µg protein; the specific internalization is 0.2295 % AD/µg protein and 0.1701 % AD/µg protein and 0.1562 % AD/µg protein. In addition, the “average SUVmean in bone tissue” value with LNCaP tumor xenograft (120 min p.i.) was 0.21. Also, in the data set on LNCaP tumor xenograft (setting [6]), the Tu/Blood is listed as 14 ± 3.0, the Tu/Bone is reported as 18 ± 7.9, the Tu/Kidney is listed as 0.5 ± 0.2 and the Tu/Liver is given as 16 ± 6.8. Besides, in the data set with LNCaP tumor xenograft (setting [6]), the Tu/Muscle came out at 20 ± 6.9.
As for `O=C(O)CC[C@H](NC(=O)N[C@@H](CCCCNC(=O)[C@H](Cc1ccc2ccccc2c1)NC(=O)[C@H]1CC[C@H](CNC(=O)CN2CCN(CC(=O)O)CCN(CC(=O)O)CCN(CC(=O)O)CC2)CC1)C(=O)O)C(=O)O` [PSMA-617], at PSMA [3], the Ki was 4.1 nM and 2.59 nM and 5.55 nM and 5.49 nM and 4.57 nM and 3.33 nM and 4.02 nM and 3.71 nM and 4.2 nM.
Take `O=C(O)CC[C@H](NC(=O)N[C@@H](CCCCNC(=O)[C@H](Cc1ccc2ccccc2c1)NC(=O)c1ccc(CNC(=O)[C@H](CCC(=O)O)NC(=O)[C@H](CCC(=O)O)NC(=O)c2ccc(F)nc2)cc1)C(=O)O)C(=O)O` [[^18F]PSMA-1007]: at PSMA [1] (Al^18F-labeled conjugate or [18F]PSMA-1007, surface-bound, 37 °C, 2 h, read-out: Kd (binding)), the dissociation constant Kd is 5.4 nM.
Consider PSMA-1007 [reference compound], for which the “Bmax,int (internalization)” value on PSMA [1] (Al^18F-labeled conjugate or [18F]PSMA-1007, acid-resistant fraction) was found to be 1.02 ± 0.21 pmol/mg. For the same molecule, the Kd turned out to be 10.1 ± 5.9 nM on PSMA [1] (setting [7]); 25.8 ± 18.6 nM on PSMA [4] (setting [7]); 12.9 ± 1.2 nM on PSMA [4] (Al^18F-labeled conjugate or [18F]PSMA-1007, surface-bound, read-out: Kd (binding)). Also, the “Bmax (binding)” value at PSMA [1] (setting [5]) was 1.11 ± 0.06 pmol/mg. For the same molecule, the Ki at PSMA [3] is 2 nM and 1.39 nM and 1.7 nM.
